This note sets out measurements from ChEMBL document CHEMBL3232987, “Investigation of Ugi-4CC derived 1H-tetrazol-5-yl-(aryl) methyl piperazinyl-6-fluoro-4-oxo-1,4-dihydroquinoline-3-carboxylic acid: synthesis, biology and 3D-QSAR analysis” (Eur J Med Chem, 2014).

Values after ≈ are worked out from the molar mass of the structure shown.

Data set [1] deals with Staphylococcus aureus. The data set can be described thus: Antibacterial activity against Staphylococcus aureus ATCC 25923 by NCCLS two-fold dilution method. Format: functional. To be noted: for MIC: Staphylococcus aureus, ATCC 25923.
Data set [2] concerns Staphylococcus aureus. The data set can be described thus: Antibacterial activity against methicillin-resistant Staphylococcus aureus ATCC 700699 by NCCLS two-fold dilution method. The class given is functional.
Data set [3] concerns Staphylococcus aureus. Kind of data set: Antibacterial activity against Staphylococcus aureus ATCC 29213 after 24 hrs by spectrophotometric analysis. The class given is functional, organism-based. The settings on record: Staphylococcus aureus, ATCC 29213, 24 h; for IC50: read-out: IC50.
The subject of data set [4] is Staphylococcus aureus. Kind of data set: Antibacterial activity against methicillin-resistant Staphylococcus aureus ATCC 700699 after 24 hrs by spectrophotometric analysis. Format: functional, organism-based. The settings on record: Staphylococcus aureus, ATCC 700699, 24 h; for IC50: read-out: IC50.
For data set [5], the system named is Staphylococcus aureus. The data set can be described thus: Antibacterial activity against gentamicin-resistant Staphylococcus aureus ATCC 33592 after 24 hrs by spectrophotometric analysis. The class given is functional, organism-based. The settings on record: Staphylococcus aureus, ATCC 33592, 24 h; for IC50: read-out: IC50.
The test system of data set [6] is Staphylococcus aureus. Kind of data set: Antibacterial activity against Staphylococcus aureus ATCC 29213 by NCCLS two-fold dilution method. Format: functional.
In data set [7] the test system is Staphylococcus aureus. Kind of data set: Antibacterial activity against gentamicin-resistant Staphylococcus aureus ATCC 33592 by NCCLS two-fold dilution method. The class given is functional.
Data set [8] deals with Staphylococcus aureus. Kind of data set: Antibacterial activity against Staphylococcus aureus ATCC 25923 after 24 hrs by spectrophotometric analysis. The class given is functional, organism-based. To be noted: Staphylococcus aureus, ATCC 25923, 24 h; for IC50: read-out: IC50.
For data set [9], the system named is L929. The data set can be described thus: Cytotoxicity against mouse L929 cells assessed as cell viability up to MIC 0.39 ug/ml after 24 hrs by MTT assay. The class given is cell-based. To be noted: l929, 24 h.

What is called MIC is the smallest concentration in the dilution series that meets the test's criterion for growth inhibition. One may read the IC50 as the concentration needed to halve the response being measured. For `COc1ccc(C(c2nnnn2C(C)(C)C)N2CCN(c3cc4c(cc3F)c(=O)c(C(=O)O)cn4Cc3ccc(C(F)(F)F)cc3)CC2)c2ccccc12` (stereo not drawn), the “-logMIC” value in [1] is reported as 4.172. The MIC in data set [1] was 50 mg/L (≈ 67.2 µM); in [2], greater than 50 mg/L; in data set [3], greater than 50 mg/L; in data set [4], 50 mg/L (≈ 67.2 µM); in data set [5], greater than 50 mg/L; in data set [6], greater than 50 mg/L. The MIC in [7] and in data set [8] was greater than 50 mg/L in each case. Moreover, the IC50 in data set [3] was greater than 50 mg/L; in data set [4], 50 mg/L (≈ 67.2 µM); in data set [5] it was greater than 50 mg/L; in [8], 50 mg/L (≈ 67.2 µM).

Regarding `CCn1cc(C(=O)O)c(=O)c2cc(F)c(N3CCN(C(c4ccc(C(C)C)cc4)c4nnnn4C(C)(C)C)CC3)cc21` (stereo not drawn), in data set [1], the “-logMIC” value is recorded as 4.06. In addition, the MIC is 50 mg/L (≈ 86.9 µM) in [1]; 50 mg/L (≈ 86.9 µM) in [2]; greater than 50 mg/L in data set [3]; 50 mg/L (≈ 86.9 µM) in data set [4]; 50 mg/L (≈ 86.9 µM) in [5]; 50 mg/L (≈ 86.9 µM) in [6]. For the same compound, the values for the MIC in data set [7] and in data set [8] were greater than 50 mg/L and 50 mg/L (≈ 86.9 µM), respectively. The IC50 is 50 mg/L (≈ 86.9 µM) in data set [3], 50 mg/L (≈ 86.9 µM) in [4], greater than 50 mg/L in [5] and 50 mg/L (≈ 86.9 µM) in data set [8].

Turning to `COc1ccc(C(c2nnnn2C2CCCCC2)N2CCN(c3cc4c(cc3F)c(=O)c(C(=O)O)cn4Cc3ccc(C(F)(F)F)cc3)CC2)c(OC)c1OC` (stereo not drawn), in data set [1], the “-logMIC” value is 4.193. The MIC in data set [1] is 50 mg/L (≈ 64.1 µM); in data set [2], greater than 50 mg/L; in data set [3] it was greater than 50 mg/L; in [4], greater than 50 mg/L; in [5], greater than 50 mg/L; in data set [6] it was greater than 50 mg/L. Further, the MIC is greater than 50 mg/L in [7] and 50 mg/L (≈ 64.1 µM) in [8]. In addition, the IC50 in [3] is greater than 50 mg/L; in data set [4], greater than 50 mg/L; in data set [5] it was 50 mg/L (≈ 64.1 µM); in data set [8] it was greater than 50 mg/L.

On to `CCn1cc(C(=O)O)c(=O)c2cc(F)c(N3CCN(C(c4ccc(C(C)C)cc4)c4nnnn4C4CCCCC4)CC3)cc21` (stereo not drawn), for which the “-logMIC” value in data set [1] was 4.682. For the same compound, the MIC worked out at 12.5 mg/L (≈ 20.8 µM) in data set [1]; 50 mg/L (≈ 83.1 µM) in data set [2]; 3.3 mg/L (≈ 5.48 µM) in data set [3]; 50 mg/L (≈ 83.1 µM) in data set [4]; 1.6 mg/L (≈ 2.66 µM) in data set [5]; 12.5 mg/L (≈ 20.8 µM) in [6]. Besides, the MIC in data set [7] was 3.12 mg/L (≈ 5.19 µM); in data set [8], 19 mg/L (≈ 31.6 µM). For the same compound, the IC50 was found to be 3.1 mg/L (≈ 5.15 µM) in [3], 50 mg/L (≈ 83.1 µM) in [4], 1.5 mg/L (≈ 2.49 µM) in [5] and 8 mg/L (≈ 13.3 µM) in data set [8].

Take `CC(C)c1ccc(C(c2nnnn2C(C)(C)C)N2CCN(c3cc4c(cc3F)c(=O)c(C(=O)O)cn4Cc3ccc(C(F)(F)F)cc3)CC2)cc1` (stereo not drawn): in data set [1], the “-logMIC” value was 4.149. In addition, the MIC in data set [1] stood at 3.12 mg/L (≈ 4.42 µM); in [2] it was 3.12 mg/L (≈ 4.42 µM); in data set [3], 3.1 mg/L (≈ 4.39 µM); in [4] it was 1.6 mg/L (≈ 2.27 µM); in data set [5], 0.87 mg/L (≈ 1.23 µM); in [6], 6.25 mg/L (≈ 8.86 µM). The minimum inhibitory concentration (MIC) in [7] and in [8] was 3.12 mg/L (≈ 4.42 µM) each time. For the same compound, the IC50 is 1.5 mg/L (≈ 2.13 µM) in data set [3], 1.4 mg/L (≈ 1.98 µM) in data set [4], 0.8 mg/L (≈ 1.13 µM) in data set [5] and 1.8 mg/L (≈ 2.55 µM) in [8].

Turning to `CCn1cc(C(=O)O)c(=O)c2cc(F)c(N3CCN(C(c4ccccc4)c4nnnn4C(C)(C)C)CC3)cc21` (stereo not drawn), the “-logMIC” value in data set [1] is 6.136. For the same compound, the MIC was determined as 0.39 mg/L (≈ 0.731 µM) in data set [1]; 25 mg/L (≈ 46.9 µM) in data set [2]; 0.5 mg/L (≈ 0.937 µM) in data set [3]; 8.3 mg/L (≈ 15.6 µM) in [4]; 0.38 mg/L (≈ 0.712 µM) in data set [5]; 0.78 mg/L (≈ 1.46 µM) in [6]. Also, the MIC in data set [7] came out at 0.39 mg/L (≈ 0.731 µM); in [8], 0.38 mg/L (≈ 0.712 µM). Also, the IC50 was 0.2 mg/L (≈ 0.375 µM) in [3], 3.8 mg/L (≈ 7.12 µM) in [4], 0.34 mg/L (≈ 0.637 µM) in data set [5] and 0.37 mg/L (≈ 0.693 µM) in data set [8]. Besides, the Activity result in [9] was “Non-toxic”.

In the case of `CC(C)(C)n1nnnc1C(c1ccc(F)cc1)N1CCN(c2cc3c(cc2F)c(=O)c(C(=O)O)cn3Cc2ccc(C(F)(F)F)cc2)CC1` (stereo not drawn), the “-logMIC” value in data set [1] turned out to be 5.037. Moreover, the MIC in data set [1] was found to be 6.25 mg/L (≈ 9.17 µM); in data set [2], 25 mg/L (≈ 36.7 µM); in [3], 1.6 mg/L (≈ 2.35 µM); in data set [4], 19.8 mg/L (≈ 29 µM); in data set [5], 2.5 mg/L (≈ 3.67 µM); in data set [6], 3.12 mg/L (≈ 4.58 µM). Besides, the figures for the MIC in data set [7] and in [8] were 6.25 mg/L (≈ 9.17 µM) and 3.1 mg/L (≈ 4.55 µM), respectively. The IC50 in data set [3] was 1.4 mg/L (≈ 2.05 µM); in [4], 8.09 mg/L (≈ 11.9 µM); in data set [5] it was 0.5 mg/L (≈ 0.733 µM); in [8], 1 mg/L (≈ 1.47 µM). In data set [9], the Activity result is “Non-toxic”.
